Among the data in patent publication US5190938A, “Derivatives of 2-hydroxythiophene and -furan fused with a nitrogen-containing ring and their application in therapy” (Sanofi, priority 1989, dated 1993) are inhibition and IC50 values, retold here.

Experiment [1] concerns platelet aggregation. Description: Platelet aggregation-inhibitory activity in rats (blood taken from treated animals, ADP or collagen added). In kind it is in vivo. The note with it: Rattus norvegicus, po, orally. The source says: b) Platelet aggregation-inhibitory activity in rats.
The target of experiment [2] is porcine pancreatic elastase (Sus scrofa, UniProt P00772). Description: In vitro inhibition of elastase enzymatic activity (hydrolysis of Suc-Ala-Ala-Pro-LeupNA), Table I. In kind it is biochemical. Particulars: 25° C., pH 8.8, concentration in the final solution. How it is done:
(§1) a) In vitro inhibition of elastase enzymatic activity.
(§2) The variation of the rate of hydrolysis of a substrate specific of elastases was studied in the presence and absence of the test compound according to a conventional technique. The experiments were performed with porcine pancreatic elastase, and human neutrophil elastase extracted from purulent sputum; the enzyme substrate was a chromogenic tetrapeptide, N-succinyl-L-alanyl-L-alanyl-[…]-L-leucyl-p-nitroanilide, designated Suc-Ala-Ala-Pro-LeupNA, which, on hydrolysis, liberates p-nitroaniline, the appearance of which in the medium is followed in a spectrophotometer; alpha1 -antitrypsin was used as a standard inhibitor. The experiments were performed at 25° C., the spectrophotometric measurement being made at 410 nm.
(§3) The solution of substrate was prepared by dissolving 5.8 mg of anilide in 20 ml of buffer solution containing 24.22 g/l of Tris-HCl with 754 mg/l of CaCl2, adjusted to pH 8.8.
(§4) The solution of enzyme in the same buffer was at a concentration of 0.1 g/l, while the solutions of test compound in the same buffer were at concentrations of between 0.1 mM and 0.01 μM.
(§5) 200 μl of solution of substrate, 75 μl of buffer solution and 200 μl of solution of the test compound, or of buffer solution in the case of the controls, were mixed in tubes. After 20 minutes at 25° C., the tube was placed in the recording spectrophotometer and 25 μl of the solution of enzyme were added to this medium; the change in the optical density ΔOD was recorded for 30 seconds.
(§6) The percentage inhibition is defined as the difference between the change in OD for the control sample and that for the test sample, divided by the change for the control and multiplied by 100. [formula]

Experiment [3] deals with T1, human leucocyte elastase (Homo sapiens, UniProt P08246).
T1 construct: human neutrophil elastase extracted from purulent sputum; from tissue; host or cells: purulent sputum
T1 sequence (P08246 30-247 limits assumed): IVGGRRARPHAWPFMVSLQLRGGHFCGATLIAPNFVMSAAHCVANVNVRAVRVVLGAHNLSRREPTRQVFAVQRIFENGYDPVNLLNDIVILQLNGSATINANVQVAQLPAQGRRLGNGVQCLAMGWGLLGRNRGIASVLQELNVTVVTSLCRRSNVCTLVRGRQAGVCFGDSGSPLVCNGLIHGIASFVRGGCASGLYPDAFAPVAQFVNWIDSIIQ
Description: In vitro inhibition of elastase enzymatic activity (hydrolysis of Suc-Ala-Ala-Pro-LeupNA), Table II. In kind it is biochemical. Particulars: human leucocyte (neutrophil) elastase from purulent sputum; 25° C.; pH 8.8; concentration in the final solution. How it is done: as §1, §2, §3, §4, §5, §6

The mark [4] stands for this setting: ADP, read-out: percentage inhibition of aggregation, ADP.
Setting [5] is: collagen, read-out: percentage inhibition of aggregation, collagen.

Counter-ions that a name gives are not always drawn. Like-named read-outs stand apart in the source and are kept apart here.

Chain of porcine pancreatic elastase (P00772 27-266): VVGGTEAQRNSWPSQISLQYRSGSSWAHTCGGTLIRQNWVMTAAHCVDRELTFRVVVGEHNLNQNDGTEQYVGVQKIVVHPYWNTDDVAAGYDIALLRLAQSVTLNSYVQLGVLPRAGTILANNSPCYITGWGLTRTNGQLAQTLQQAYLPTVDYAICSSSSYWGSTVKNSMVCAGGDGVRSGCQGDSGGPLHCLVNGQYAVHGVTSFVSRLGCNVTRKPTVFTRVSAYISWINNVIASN

The term inhibition denotes the change of the read-out against control, counted positive when it falls. Regarding `CC(C)(C)C(=O)Oc1cc2c(s1)CCN(Cc1ccccc1Cl)C2` [SR 26766, 5-(2-chlorobenzyl)-4,5,6,7-tetrahydrothieno[3,2-c]pyridyl-2 t-butyrate], the inhibition at 100 mg/kg in experiment [1] (setting [4]) was 61%; in experiment [1] (setting [5]), 62%.

As usually defined, the IC50 is the point on the concentration scale where inhibition reaches its midpoint. A lower IC50 goes with greater potency in that assay. For the compound `CC(C)C(=O)Oc1cc2c(s1)CCNC2` [SR 26861, 4,5,6,7-Tetrahydrothieno[3,2-c]pyrid-2-yl isobutyrate, hydrochloride], the IC50 in experiment [2] came out at 6.4 µM; in experiment [3], 2.6 µM.

`CC(=O)Oc1cc2c(s1)CCN(C(C(=O)N1CCCC1)c1ccccc1Cl)C2` (stereo not shown) [SR 26913] displayed an IC50 in experiment [2] of 32 µM.

As to `CC(C)C(=O)Oc1cc2c(s1)CCN(Cc1ccccc1)C2` [SR 26829], the IC50 in experiment [2] was found to be 8 µM; in experiment [3] it was 24 µM.

`CC(C)C(=O)Oc1cc2c(s1)CCN(Cc1ccccc1Cl)C2` [SR 26772]: the half-inhibitory concentration (IC50) in experiment [2] amounted to 5.8 µM; in experiment [3], 2.6 µM.

Take `CN1CCc2sc(OC(=O)C(C)(C)C)cc2C1` [SR 26984, 5-methyl-4,5,6,7-tetrahydrothieno[3,2-c]pyrid-2-yl t-butyrate]: the concentration for half-maximal inhibition (IC50) came to 3.6 µM in experiment [2] and 2.6 µM in experiment [3].

Consider `CC(C)C(=O)Oc1cc2c(s1)CN(Cc1ccccc1Cl)CC2` [SR 26862], for which, in experiment [2], 4 µM corresponded to half-maximal inhibition (IC50).

On to `COc1ccc(C[N+]2([O-])CCc3sc(OC(=O)C(C)(C)C)cc3C2)cc1` (stereo not shown) [SR 27262], for which the 50% inhibitory concentration (IC50) in experiment [2] was 1 µM; in experiment [3], 2.6 µM.

Turning to `CC(C)(C)C(=O)Oc1cc2c(s1)C[N+]([O-])(Cc1ccccc1Cl)CC2` (stereo not shown) [SR 26998], the IC50 in experiment [2] and in experiment [3] was 2.2 µM throughout.

Regarding `CCCC(=O)Oc1cc2c(s1)CC[N+]([O-])(Cc1ccccc1Cl)C2` (stereo not shown) [SR 26832], the half-inhibitory concentration (IC50) in experiment [2] was 7 µM; in experiment [3] it was 5.6 µM.

For `CCC[N+]1([O-])CCc2sc(OC(=O)C(C)(C)C)cc2C1` (stereo not shown) [SR 27325], the values for the half-inhibitory concentration (IC50) in experiment [2] and in experiment [3] were 15 µM and 0.7 µM, respectively.

With `CCCC(=O)Oc1cc2c(s1)CCN(Cc1ccc(Cl)cc1)C2` [SR 26767], the IC50 in experiment [2] came out at 4.8 µM; in experiment [3] it was 3.4 µM.

`CC(C)(C)C(=O)Oc1cc2c(s1)CC[N+](C)([O-])C2` (stereo not shown) [SR 27165] returned an IC50 in experiment [2] of 10 µM.

`CC(C)(C)C(=O)Oc1cc2c(s1)CCN(Cc1ccccc1)C2` [SR 26827]: the IC50 in experiment [2] amounted to 9 µM; in experiment [3], 3.4 µM. Also, the inhibition at 100 mg/kg in experiment [1] (setting [4]) is 48%; in experiment [1] (setting [5]) it was 21%.

Take `CC(C)C(=O)Oc1cc2c(s1)CCN(Cc1ccc(Cl)cc1)C2` [SR 26769]: the IC50 in experiment [2] was found to be 7 µM; in experiment [3], 30 µM.

Take `CC(C)(C)C(=O)Oc1cc2c(s1)CC[N+]([O-])(Cc1ccccc1Cl)C2` (stereo not shown) [SR 26831]: the IC50 was 5 µM in experiment [2] and 2.5 µM in experiment [3].

As for `CC(C)(C)C(=O)Oc1cc2c(s1)CC[N+]([O-])(Cc1ccc(Cl)cc1)C2` (stereo not shown) [SR 26977], the results for the half-inhibitory concentration (IC50) in experiment [2] and in experiment [3] were 2.5 µM and 1.8 µM, respectively.

For `COC(=O)C(c1ccccc1Cl)N1CCc2sc(OC(=O)C(C)C)cc2C1` (stereo not shown) [SR 26886], the half-maximal inhibitory concentration (IC50) in experiment [2] is 2.9 µM; in experiment [3], 30 µM.

For the compound `CC(c1ccccc1)N1CCc2sc(OC(=O)C(C)(C)C)cc2C1` (racemic) [SR 27319], the values for the IC50 in experiment [2] and in experiment [3] were 4.5 µM and 3.4 µM, respectively.

`CCCN1CCc2sc(OC(=O)C(C)(C)C)cc2C1` [SR 27318, 5-propyl-4,5,6,7-tetrahyirothieno[3,2-c]pyrid-2-yl t-butyrate]: the results for the IC50 in experiment [2] and in experiment [3] were 10 µM and 3 µM, respectively.

As for `COc1ccc(CN2CCc3sc(OC(=O)C(C)(C)C)cc3C2)cc1` [SR 27261], the results for the half-maximal inhibitory concentration (IC50) in experiment [2] and in experiment [3] were 4.5 µM and 3.2 µM, respectively.

Compound `CCOC(=O)Oc1cc2c(s1)CC[N+]([O-])(Cc1ccccc1Cl)C2` (stereo not shown) [SR 26894] had a half-maximal inhibitory concentration (IC50) in experiment [2] of 24 µM.

`CC(C)(C)C(=O)Oc1cc2c(o1)CC[N+]([O-])(Cc1ccccc1Cl)C2` (stereo not shown) [SR 26993]: the results for the IC50 in experiment [2] and in experiment [3] were 1.7 µM and 3.1 µM, respectively.

With `CC(c1ccccc1)[N+]1([O-])CCc2sc(OC(=O)C(C)(C)C)cc2C1` (stereo not shown) [SR 27354], the IC50 turned out to be 10 µM in experiment [2] and 2.6 µM in experiment [3].

`CC(=O)Oc1cc2c(s1)CC[N+]([O-])(C(C(=O)N1CCCC1)c1ccccc1Cl)C2` (stereo not shown) [SR 26914] displayed a 50% inhibitory concentration (IC50) in experiment [2] of 25 µM.

Consider `CCCC(=O)Oc1cc2c(s1)CCN(Cc1ccccc1Cl)C2` [PCR 4094], for which the IC50 was found to be 2 µM in experiment [2] and 3.5 µM in experiment [3].

Turning to `CC(C)(C)C(=O)Oc1cc2c(s1)CC[N+]([O-])(Cc1ccccc1)C2` (stereo not shown) [SR 26986], the values for the IC50 in experiment [2] and in experiment [3] were 2.2 µM and 2.3 µM, respectively.

In experiment [2], `CC(C)(C)C(=O)Oc1cc2c(s1)CC[N+](C)(Cc1ccccc1Cl)C2` (stereo not shown) [SR 27168] yielded a concentration for half-maximal inhibition (IC50) of 1.6 µM.

In the case of `CC(C)(C)C(=O)Oc1cc2c(o1)CCN(Cc1ccccc1Cl)C2` [SR 26938, 5-(2-chlorobenzyl)-4,5,6,7-tetrahydrofuro-[3,2-c]pyrid-2yl t-butyrate], the IC50 in experiment [2] came out at 3.6 µM; in experiment [3], 3.1 µM.

With `CC(C)(C)C(=O)Oc1cc2c(s1)CCNC2` [SR 26842, 4,5,6,7,-tetrahydrothieno[3,2-c]pyrid-2-yl t-butyrate], the IC50 was determined as 10 µM in experiment [2] and 3.2 µM in experiment [3].

With `CC(C)C(=O)Oc1cc2c(s1)CC[N+]([O-])(Cc1ccccc1Cl)C2` (stereo not shown) [SR 26833], the half-inhibitory concentration (IC50) worked out at 6 µM in experiment [2] and 3.6 µM in experiment [3].
